The source of these data is patent publication US5019575A, “Novel pyridazinone compounds, compositions thereof and method of use” (Orion-yhtyma Oy, priority 1989, dated 1991).

What is called EC50 is the midpoint of the concentration-response curve. In general, IC50 refers to the concentration needed to halve the response being measured.

Structures are written as SMILES. Like-named read-outs stand apart in the source and are kept apart here.

Data set [1] has as its system guinea-pig papillary muscle. Description: Cardiotonic effect in isolated, electrically driven, right ventricular papillary muscle, without and with carbachol. To be noted: for EC50: Cavia porcellus; for Ratio B/A of EC50: with 10 μM carbachol / without carbachol. As to the method: The cardiotonic action of the compound was studied in isolated, electrically driven, right ventricular papillary muscle of guinea-pig.
A = experiments carried out without carbachol
B = experiments carried out in the presence of 10 μM carbachol

Data set [2] addresses T1, cardiac phosphodiesterase III (PDEIII), dog (Canis lupus familiaris, UniProt A0A8I3NYE0).
T1 construct: enzyme preparation isolated from dog and guinea-pig heart; from tissue; host or cells: dog heart
T1 sequence (A0A8I3NYE0 1-1135): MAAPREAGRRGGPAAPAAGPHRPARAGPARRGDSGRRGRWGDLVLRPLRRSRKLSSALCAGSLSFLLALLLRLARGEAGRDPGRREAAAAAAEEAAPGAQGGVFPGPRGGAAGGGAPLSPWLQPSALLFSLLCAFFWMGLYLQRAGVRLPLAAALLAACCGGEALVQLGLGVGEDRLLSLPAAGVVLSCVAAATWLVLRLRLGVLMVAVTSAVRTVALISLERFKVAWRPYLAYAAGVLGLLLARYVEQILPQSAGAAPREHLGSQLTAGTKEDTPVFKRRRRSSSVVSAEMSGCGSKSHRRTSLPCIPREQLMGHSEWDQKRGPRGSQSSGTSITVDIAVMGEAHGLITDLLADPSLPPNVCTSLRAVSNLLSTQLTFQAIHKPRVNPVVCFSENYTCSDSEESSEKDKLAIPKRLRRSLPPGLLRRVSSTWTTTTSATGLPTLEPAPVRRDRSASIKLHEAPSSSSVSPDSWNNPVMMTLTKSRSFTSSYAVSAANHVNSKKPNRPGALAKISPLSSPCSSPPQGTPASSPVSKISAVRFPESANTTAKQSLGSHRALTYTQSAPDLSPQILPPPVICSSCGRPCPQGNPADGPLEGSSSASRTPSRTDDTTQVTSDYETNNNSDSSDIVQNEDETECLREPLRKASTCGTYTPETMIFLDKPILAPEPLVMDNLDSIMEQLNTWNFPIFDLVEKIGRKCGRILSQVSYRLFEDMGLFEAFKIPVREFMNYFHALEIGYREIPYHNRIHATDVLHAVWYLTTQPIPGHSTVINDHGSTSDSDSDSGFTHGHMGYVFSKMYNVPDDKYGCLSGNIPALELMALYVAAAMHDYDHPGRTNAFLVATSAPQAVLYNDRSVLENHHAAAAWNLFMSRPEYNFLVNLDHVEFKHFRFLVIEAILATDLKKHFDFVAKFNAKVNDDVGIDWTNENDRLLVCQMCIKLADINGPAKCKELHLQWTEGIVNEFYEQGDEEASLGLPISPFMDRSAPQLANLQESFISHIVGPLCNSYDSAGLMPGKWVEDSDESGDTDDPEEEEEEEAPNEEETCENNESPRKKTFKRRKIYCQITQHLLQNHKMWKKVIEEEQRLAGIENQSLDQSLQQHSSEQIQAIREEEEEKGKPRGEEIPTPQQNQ
Description: Inhibition of cardiac phosphodiesterase III, dog heart enzyme preparation. The data set is classed as biochemical.

Data set [3] deals with troponin. Description: Retention time in troponin high-performance liquid affinity chromatography (HPLAC) column, calcium dependent binding to troponin. To be noted: for Ratio Ca^2+ /EDTA (retention times in troponin-HPLAC column): Ca^2+ solution / EDTA solution; for Retention time in troponin-HPLAC column, Ca^2+ solution: mobile phase with 30 mM calcium; for Retention time in troponin-HPLAC column, Ca^2+ solution / Retention time in troponin-HPLAC column, EDTA solution: flow rate 1 ml/min; for Retention time in troponin-HPLAC column, EDTA solution: mobile phase without calcium (EDTA). The procedure:
The contraction in cardiac muscle and in vascular smooth muscle is triggered by the binding of calcium to troponin and to calmodulin, respectively. […] Commercially available troponin was coupled to the matrix of SelectiSpher-10™ Activated Tresyl silica HPLAC column (size 10 cm×5 mm). The compounds were run through the column with the flow rate 1 ml/min and detected by UV-spectrophotometrically.

The nature of data set [4]: Precipitation at 100 μM concentration (footnote of Table 3). Type of data set: physicochemical. The arrangement: key: *: precipitation occurs at 100 μM concentration. Conditions: printed in column C of Table 3.
For data set [5], the target named is T2, cardiac phosphodiesterase III (PDEIII), guinea-pig (Cavia porcellus, UniProt H0VIU9).
T2 construct: enzyme preparation isolated from dog and guinea-pig heart; from tissue; host or cells: guinea-pig heart
T2 sequence (H0VIU9 1-1132): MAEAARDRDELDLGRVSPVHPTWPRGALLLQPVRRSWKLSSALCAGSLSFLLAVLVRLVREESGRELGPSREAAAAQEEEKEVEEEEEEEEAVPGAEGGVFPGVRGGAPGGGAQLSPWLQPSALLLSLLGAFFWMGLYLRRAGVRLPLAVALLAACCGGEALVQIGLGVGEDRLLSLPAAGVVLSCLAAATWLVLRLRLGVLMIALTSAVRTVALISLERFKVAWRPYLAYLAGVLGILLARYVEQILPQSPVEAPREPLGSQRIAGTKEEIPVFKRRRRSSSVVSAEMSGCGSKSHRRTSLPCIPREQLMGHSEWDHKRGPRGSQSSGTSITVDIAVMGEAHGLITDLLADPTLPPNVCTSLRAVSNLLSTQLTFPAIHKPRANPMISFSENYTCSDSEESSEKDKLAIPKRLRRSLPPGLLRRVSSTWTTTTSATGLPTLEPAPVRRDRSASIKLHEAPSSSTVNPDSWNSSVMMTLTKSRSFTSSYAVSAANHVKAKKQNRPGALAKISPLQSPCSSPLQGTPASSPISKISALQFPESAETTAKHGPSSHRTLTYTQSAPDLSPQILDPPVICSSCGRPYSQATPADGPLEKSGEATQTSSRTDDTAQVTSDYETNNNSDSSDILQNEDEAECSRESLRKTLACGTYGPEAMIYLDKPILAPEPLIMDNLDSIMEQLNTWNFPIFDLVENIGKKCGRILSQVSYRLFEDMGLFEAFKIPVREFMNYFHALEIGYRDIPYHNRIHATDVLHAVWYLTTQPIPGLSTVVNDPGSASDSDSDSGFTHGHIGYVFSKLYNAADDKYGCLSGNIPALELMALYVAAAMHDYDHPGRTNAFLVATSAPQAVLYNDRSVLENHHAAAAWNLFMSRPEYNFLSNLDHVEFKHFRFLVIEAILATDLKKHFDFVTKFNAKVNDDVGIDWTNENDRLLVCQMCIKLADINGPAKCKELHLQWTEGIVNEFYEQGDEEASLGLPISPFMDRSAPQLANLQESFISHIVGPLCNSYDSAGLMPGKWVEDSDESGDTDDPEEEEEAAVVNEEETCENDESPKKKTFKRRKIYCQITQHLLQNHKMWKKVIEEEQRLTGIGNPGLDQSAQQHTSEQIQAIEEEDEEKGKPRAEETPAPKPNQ
Nature of the data set: Inhibition of cardiac phosphodiesterase III, guinea-pig heart enzyme preparation. Type of data set: biochemical. The text has this:
The PDEIII inhibition was studied by using enzyme preparation isolated from dog and guinea-pig heart according to Alajoutsijarvi and Nissinen (Anal. Biochem. 165, 128-132, 1987).

For data set [6], the system named is guinea-pig papillary muscle. Nature of the data set: Ability to induce tonic contraction in papillary muscle in the absence of extracellular calcium. Conditions: drug concentration 100 μM; no extracellular calcium. The procedure: The cardiotonic action of the compound was studied in isolated, electrically driven, right ventricular papillary muscle of guinea-pig. In order to compare the cardiotonic action based on PDEIII inhibition to that based on the other mechanisms the experiments were carried out in normal Tyrode's bathing solution (Otani et al., Japan. J. Pharmacol. 45, 425, 1987) and also in the solution with carbachol to eliminate the cardiotonic action due to the PDEIII inhibition (Alousi & Johnson, Circulation, 73 (suppl. III), 10-23, 1986).
C = ability to induce tonic contraction in the absence of extracellular
calcium; drug concentration 100 μM

As for `CC(=O)C(=NNc1ccc(C2=NNC(=O)CC2)cc1)C(C)=O` [Example 7, 6-[4-(1,1-diacetylmethylidenehydrazino)phenyl]-4,5-dihydropyridazin-3(2H)on], the EC50 in data set [1] (in the presence of 10 μM carbachol, read-out: EC50 cardiotonic effect (B)) was found to be 2700 nM. In addition, the EC50 in data set [1] (without carbachol, read-out: EC50 cardiotonic effect (A)) is 740 nM. Further, in data set [1], the “Ratio B/A of EC50” value came to 3.6. Moreover, the IC50 in data set [2] (dog heart, read-out: IC50-value, inhibition of cardiac phosphodiesterase III, Dog) was 230 nM. Besides, in data set [3], the “Ratio Ca^2+ /EDTA (retention times in troponin-HPLAC column)” value is reported as 1.29; the “Retention time in troponin-HPLAC column, Ca^2+ solution” value worked out at 5.4 min; the “Retention time in troponin-HPLAC column, EDTA solution” value is on record as 4.2 min. Also, the precipitation result in data set [4] is given as “*”.
With `Cc1[nH]c(=O)c(C#N)cc1-c1ccncc1` [milrinone, reference compound], the EC50 in data set [1] (read-out: EC50 cardiotonic effect (A)) is 360 nM. Further, in data set [1], the “Ratio B/A of EC50” value is 15.3. Moreover, in data set [5], the IC50 was 440 nM. In addition, in data set [2], inhibition was half-maximal at 580 nM (IC50). Further, in data set [3], the “Ratio Ca^2+ /EDTA (retention times in troponin-HPLAC column)” value stood at 1.00; the “Retention time in troponin-HPLAC column, Ca^2+ solution” value stood at 1.2 min; the “Retention time in troponin-HPLAC column, EDTA solution” value was determined as 1.2 min. Besides, the “C: ability to induce tonic contraction in the absence of extracellular calcium” value in data set [6] is “no”.
